In patent US9045498B2, “Hexahydropyrano[3,4-d][1,3]thiazin-2-amine compounds” (Pfizer Inc., priority 2012, dated 2015) one finds IC50 data, which are given here for 1 compound.

pIC50: −log10 of the molar value.

The target in one assay is BACE1 enzyme (Homo sapiens (Human), UniProt P56817). Nature of the assay: BACE1 Cell-Free Assay (fluorescence polarization). In kind it is biochemical. The note with it: geometric mean of 2-3 determinations; pH 4.5, 3 hours at 37° C. From the text: This assay measures the inhibition of the beta-secretase enzyme as it cleaves a non-native peptide.
BACE1 enzyme, sequence (P56817 46-457): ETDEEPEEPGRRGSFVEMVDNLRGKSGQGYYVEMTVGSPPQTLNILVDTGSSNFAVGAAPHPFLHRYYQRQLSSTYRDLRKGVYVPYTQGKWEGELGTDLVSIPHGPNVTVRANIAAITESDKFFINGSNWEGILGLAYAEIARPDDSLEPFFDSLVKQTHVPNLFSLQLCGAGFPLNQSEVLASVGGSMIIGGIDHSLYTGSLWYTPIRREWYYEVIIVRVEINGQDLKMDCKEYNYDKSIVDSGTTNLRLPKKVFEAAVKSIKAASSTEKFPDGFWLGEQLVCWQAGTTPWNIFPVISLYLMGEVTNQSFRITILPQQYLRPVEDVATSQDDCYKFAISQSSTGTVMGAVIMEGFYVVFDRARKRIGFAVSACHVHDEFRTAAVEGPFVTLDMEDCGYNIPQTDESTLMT
A synthetic APP substrate that can be cleaved by beta-secretase having N-terminal biotin and made fluorescent by the covalent attachment of Oregon Green at the Cys residue is used to assay beta-secretase activity in the presence or absence of the inhibitory compounds. […] The BACE1 enzyme is affinity purified material from conditioned media of CHO-K1 cells that have been transfected with a soluble BACE construct (BACE1deltaTM96His). Compounds are incubated in a ½ log dose response curve from a top concentration of 100 μM with BACE1 enzyme and the biotinylated fluorescent peptide in 384-well black plates (Thermo Scientific #4318). BACE1 is at a final concentration of 0.1 nM with a final concentration of peptide substrate of 150 nM in a reaction volume of 30 μL assay buffer (100 mM sodium acetate, pH 4.5 (brought to pH with acetic acid), and 0.001% Tween-20). Plates are covered and incubated for 3 hours at 37° C. The reaction is stopped with the addition of 30 μL of 1.5 μM Streptavidin (Pierce, #21125). After a 10 minute incubation at room temperature, plates are read on a PerkinElmer EnVision for fluorescence polarization (Ex485 nm/Em530 nm). The activity of the beta-secretase enzyme is detected by changes in the fluorescence polarization that occur when the substrate is cleaved by the enzyme.

In assay [1] the test system is sAPPβ levels in H4 human neuroglioma cells over-expressing the wild-type human APP695. Nature of the assay: Whole Cell Assay (In Vitro sAPPb Assay). In kind it is cell-based. The note with it: 18 hours treatment, geometric mean of 2-3 determinations (4-7 where marked d). How it is done:
Whole Cell Assay (In Vitro sAPPb Assay):
H4 human neuroglioma cells over-expressing the wild-type human APP695 are treated for 18 hours with compound in cell growth media having a final concentration 1% DMSO. sAPPβ levels are measured using either TMB-ELISA or Pierce SuperSignal ELISA Pico Chemiluminescent Substrate (Pierce 37069) with capture APP N-terminal antibody (Affinity BioReagents, OMA1-03132), wild-type sAPPβ specific reporter p192 (Elan), and tertiary anti rabbit-HRP (GE Healthcare).

Another assay has as its target BACE2 enzyme (Homo sapiens (Human), UniProt Q9Y5Z0). Nature of the assay: BACE2 Cell-free Assay (fluorescence polarization). Particulars: pH 4.5, 3 hours at 37° C.; number of determinations per footnote a, b, d. It is filed as biochemical. The method, then: This assay measures the inhibition of the BACE2 enzyme as it cleaves a non-native peptide. A synthetic substrate that can be cleaved by BACE2 having N-terminal biotin and made fluorescent by the covalent attachment of Oregon Green at the Cys residue is used to assay BACE2 activity in the presence or absence of the inhibitory compounds. The substrate is Biotin-[…]-C(Oregon green)-KK-OH. The BACE2 enzyme is available from Enzo Life Sciences (Cat # BML-SE550). Compounds are incubated in a ½ log dose response curve from a top concentration of 100 μM with BACE2 enzyme and the biotinylated fluorescent peptide in 384-well black plates (Thermo Scientific #4318). BACE2 is at a final concentration of 2.5 nM with a final concentration of peptide substrate of 150 nM in a reaction volume of 30 μL assay buffer (100 mM sodium acetate, pH 4.5 (brought to pH with acetic acid), and 0.001% Tween-20). Plates are covered and incubated for 3 hours at 37° C. The reaction is stopped with the addition of 30 μL of 1.5 μM Streptavidin (Pierce, #21125). After a 10 minute incubation at room temperature, plates are read on a Perkin Elmer EnVision for fluorescence polarization (Ex485 nm/Em530 nm). The activity of the beta-secretase enzyme is detected by changes in the fluorescence polarization that occur when the substrate is cleaved by the enzyme.
On the technique in general: Fluorescence polarisation rises when a labelled molecule tumbles more slowly, as on binding a larger partner.

BACE2 enzyme, sequence (Q9Y5Z0 63-518): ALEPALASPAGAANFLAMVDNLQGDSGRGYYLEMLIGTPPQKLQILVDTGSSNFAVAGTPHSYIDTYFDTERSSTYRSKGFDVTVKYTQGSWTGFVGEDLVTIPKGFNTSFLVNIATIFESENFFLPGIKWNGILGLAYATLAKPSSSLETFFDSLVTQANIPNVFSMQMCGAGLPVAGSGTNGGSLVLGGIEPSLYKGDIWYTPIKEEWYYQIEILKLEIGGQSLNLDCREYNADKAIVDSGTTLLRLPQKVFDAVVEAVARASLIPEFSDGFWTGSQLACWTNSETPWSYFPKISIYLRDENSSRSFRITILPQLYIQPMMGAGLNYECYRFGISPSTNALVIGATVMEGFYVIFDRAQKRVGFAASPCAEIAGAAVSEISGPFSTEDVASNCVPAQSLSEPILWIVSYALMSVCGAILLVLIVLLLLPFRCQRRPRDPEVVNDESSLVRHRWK

As usually defined, the pIC50 is −log10 of the IC50, conventionally taken in molar units. Read a high pIC50 as a small IC50. `NC1=N[C@@]2(c3cc(CNCC(F)(F)F)ccc3F)CO[C@@H](CF)C[C@H]2CS1` [Example 15, (4aR,6R,8aS)-6-(Fluoromethyl)-8a-(2-fluoro-5-{[(2,2,2-trifluoroethyl)amino]methyl}phenyl)-4,4a,5,6,8,8a-hexahydropyrano[3,4-d][1,3]thiazin-2-amine]: the pIC50 on BACE1 enzyme is 6.42; in assay [1] it was 8.09; against BACE2 enzyme, 6.37.
